# In patent publication US7384959B2, “Treatment of convulsive states” (priority 1999, dated 2008):
# Test system: rat
# Test: Irwin Observation Test in the rat, subcutaneous route
# Format: in vivo
# Design: key to Mydriasis / Hyperthermia / Excitation: +=slight; ++=moderate
# Description: The following Tables report the results of the Irwin, PTZ and barbital interaction (sleep induction) tests. Description of these tests may be found in Psychopharmacologica, 13:222-257 (1968), Krall et al, Epilepsia 19:409-428 (1978), and Simon et al, J. Pharmacol, Paris 13:241-252 (1982). See also Roux et al, Phoenix international Pharmacology Reports Nos. D30.2061/2 and D99.021/2.
# In Table 1, the following apply: +=slight; ++=moderate
# (X/N) indicates the number of rats showing the symptoms.
# Observations were performed at 15, 30, 60, 120, 180 minutes and 24 hours after administration.
# Hyperthermia and mydriasis were evaluated by comparison of the mean scores obtained in treated and control animals.
smiles,measurement,setting,value
"COC(=O)[C@@H](c1ccccc1)[C@@H]1CCCCN1 [l-MPH, l-threo-Methylphenidate]",Irwin test observation (cell wraps: No change),"2 mg/kg s.c., rat",No
same,Mydriasis,"4 mg/kg s.c., at 30′",Mydriasis +
same,Excitation,"8 mg/kg s.c., at 30′",Excitation +
same,"Excitation, number of rats showing the symptoms (X/N)","8 mg/kg s.c., at 30′",(2/3) at 30′
same,Mydriasis,"8 mg/kg s.c., at 30′",Mydriasis +
same,"Stereotypies (sniffing), number of rats showing the symptoms (X/N)","8 mg/kg s.c., at 30′",(1/3) at 30′
same,"Stereotypies (sniffing), number of rats showing the symptoms (X/N)","16 mg/kg s.c., 30′ → 120′",(3/3) 30′ → 120′
same,Excitation,"16 mg/kg s.c., 60′ → 120′",Excitation +
same,"Excitation, number of rats showing the symptoms (X/N)","16 mg/kg s.c., 60′ → 120′",(2/3) 60′ → 120′
same,"Stereotypies (head movements), number of rats showing the symptoms (X/N)","16 mg/kg s.c., 60′ → 120′",(1/3) 60′ → 120′
same,Mydriasis,"16 mg/kg s.c., at 30′",Mydriasis + at 30′
same,Excitation,"32 mg/kg s.c., 15′ → 30′",Excitation +
same,"Excitation, number of rats showing the symptoms (X/N)","32 mg/kg s.c., 15′ → 30′",(3/3) 15′ → 30′
same,"↑ Reactivity to touch, number of rats showing the symptoms (X/N)","32 mg/kg s.c., 15′ → 30′",(3/3) 15′ → 30′
same,Mydriasis,"32 mg/kg s.c., 15′ → 120′",(++ 15′ →
same,"Stereotypies (sniffing), number of rats showing the symptoms (X/N)","32 mg/kg s.c., 15′ → 120′",(3/3)
same,"↑ Fear, number of rats showing the symptoms (X/N)","32 mg/kg s.c., 15′ → 120′",(3/3)
same,Hyperthermia,"32 mg/kg s.c., at 30′ and 120′",Hyperthermia +
same,Mydriasis,"32 mg/kg s.c., at 180′",(+ at 180′)
same,Irwin test observations at higher doses,"64, 128 and 256 mg/kg, s.c., rat","all rats exhibited further characteristics including sedation, fore-paw treading, stereotypes (head movements) and decreased muscle tone"
same,signs of stimulation in the Irwin profile,at doses having anti-convulsant effects,Slight signs of stimulation were noted
same,sedation in the Irwin profile,at the doses used in the PTZ test,sedation was not noted
